According to US20110065756A1, “METHODS AND COMPOSITIONS FOR TREATMENT OF OBESITY-RELATED DISEASES” (priority 2009, published 2011):

Legend:
[1] = clinical use; cited from earlier work
[2] = RECORD, cited from earlier work
[3] = Rosiglitazone treatment of diet-induced obese mice: body weight, fasting plasma glucose and insulin, IPGTT; type: in vivo; settings: obese C57BL/6J mice, 10 mg/kg/day by gavage, vs vehicle
Procedure: Ten adult (6 week-old) male C57BL/6J mice were purchased from the Jackson Laboratory. Mice were housed in a pathogen-free barrier facility (12 h light/12 h dark cycle). […] Mice were weighed every 4 weeks. After 12 weeks blood was collected after a 6 hour fast and plasma glucose levels were analyzed using the Accu-Check glucose meter. Subsequently, mice were treated with rosiglitazone (10 mg/kg/day in 1% carboxymethylcellulose in water) or vehicle by gavaging for 10 days. On day 10 the animals were subjected to an intraperitoneal glucose tolerance test (IPGTT) after a 16 hr overnight fast. Plasma glucose levels were determined at 0, 15, 30, 60 and 120 min using an Accu-Check glucose meter; at each time point 10 μl blood was collected in EDTA-coated tubes (Microvette CB300, Sarstedt, Newton, N.C.) for determination of insulin levels using an ELISA specific for mouse insulin (Alpco Diagnostics, Salem, N.H.). After the IPGTT, mice received a final treatment with rosiglitazone or vehicle (day 11) and were euthanized the next day (day 12) after a 6 hour fast under anaesthesia with isoflurane (Baxter). The epididymal fat pads, subcutaneous fat pads, liver and kidneys were harvested and stored at −80° C. for further analysis.
Results are expressed as mean±SEM. […]

CCc1ccc(CCOc2ccc(CC3SC(=O)NC3=O)cc2)nc1 (centres unmarked) [pioglitazone]
incidence of hepatitis and potential liver failure [1]: have not shown higher incidence

CN(CCOc1ccc(CC2SC(=O)NC2=O)cc1)c1ccccn1 (centres unmarked) [rosiglitazone]
cardiovascular death, myocardial infarction, or stroke ([2]; 5-7 years follow-up, vs active control group): No difference was observed
upper and distal lower limb fracture rates ([2]; particularly in women): increased
heart failure that caused either hospital admission or death ([2]; rosiglitazone group (29 in active control group)): 61 patients
risk difference per 1000 person-years for heart failure ([2]; vs active control, interval 1.1-4.1): 2.6
hazard ratio [HR] for heart failure ([2]; vs active control, interval 1.35-3.27): 2.10
incidence of hepatitis and potential liver failure [1]: have not shown higher incidence
body weight [3]: did not influence weight
